For 10 compounds, RFU and stoichiometry N results are on record in article PMC12363179, “Mapping the sialic acid-binding sites of LuIII and H-1 parvovirus” (Journal of Virology, 2025).

Experiment [1] has as its target T1, LuIII VLP (VP2) (LuIII virus, UniProt P36310).
T1 construct: VP2-only virus-like particle without DNA, T=1 icosahedral 60-mer, baculovirus/Sf9; residues 37-587 modelled
Kind of experiment: CFG glycan microarray v4.[…], antibody fluorescence. The format is binding. As to conditions: immobilised glycan; unlabelled VLP 0.2 mg/mL, PBS, room temperature, 1 h.

Experiment [2] has as its target T1, LuIII VLP (VP2). Description: Max-Planck glycan microarray, fluorescence. To be noted: immobilised glycan; DyLight488-labelled VLP 0.1 mg/mL, PBS-MK (MgCl2, KCl), 4 °C overnight. It counts as binding. The text has this:
Max-Planck glycan microarray, fluorescence on LuIII VLP (VP2)

For experiment [3], the target named is H-1 parvovirus virus-like particle (VLP) composed of VP2, the major capsid protein (H-1 parvovirus). Description: cryo-EM structure; VLPs of VP2 in 10 mM Tris-HCl, 500 mM NaCl, 8 mM CaCl2, 2 mM MgCl2, pH 7.5, with or without glycan (s(LN)3 or s(Le^x)2); icosahedral reconstruction in cisTEM, 60mer models fitted.
Experiment [4] has as its target LuIII virus-like particle (VLP) composed of VP2, the major capsid protein (parvovirus LuIII). Described as above.
Another experiment addresses T2, MVM / MVMp VLP (VP2) (Murine minute virus strain MVM prototype, UniProt P03137).
T2 construct: VP2-only virus-like particle without DNA, T=1 icosahedral 60-mer, baculovirus/Sf9; DyLight488-labelled
Description: Max-Planck glycan microarray, fluorescence. It counts as binding. As to conditions: immobilised glycan; DyLight488-labelled VLP 0.4 mg/mL, PBS-MK (MgCl2, KCl), 4 °C overnight. From the text:
Max-Planck glycan microarray, fluorescence on MVM / MVMp VLP (VP2)

Usually stoichiometry N stands for the number of molecules, sites or subunits per partner or assembly.

In the case of `CC(=O)N[C@H]1[C@H](O[C@H]2[C@@H](O)[C@@H](CO)O[C@@H](O[C@H]3[C@H](O)[C@@H](O)[C@H](OCCCN)O[C@@H]3CO)[C@@H]2O)O[C@H](CO)[C@@H](O)[C@@H]1O[C@@H]1O[C@H](CO)[C@H](O)[C@H](O)[C@H]1O[C@@H]1O[C@@H](C)[C@@H](O)[C@@H](O)[C@@H]1O` [compound 65, Fucα1-2Galβ1-3GlcNAcβ1-3Galβ1-4Glcβ-Sp8], the RFU on LuIII VLP (VP2) [1] was determined as 601 ± 93 RFU. Same read-out and setting: the result for `CC(=O)N[C@H]1[C@H](OCCCN)O[C@H](CO)[C@@H](O[C@@H]2O[C@H](CO)[C@H](O)[C@H](O[C@]3(C(=O)O)C[C@H](O)[C@@H](NC(C)=O)[C@H]([C@H](O)[C@H](O)CO)O3)[C@H]2O)[C@@H]1O[C@@H]1O[C@@H](C)[C@@H](O)[C@@H](O)[C@@H]1O` [compound 253, Neu5Acα2-3Galβ1-4(Fucα1-3)GlcNAcβ-Sp8] reads 1,685 ± 423 RFU. `CC(=O)N[C@H]1[C@H](O[C@H]2[C@@H](O)[C@@H](CO)O[C@@H](O[C@H]3[C@H](O)[C@@H](CO)O[C@@H](OCCN)[C@@H]3NC(C)=O)[C@@H]2O)O[C@H](CO)[C@@H](O[C@@H]2O[C@H](CO)[C@H](O)[C@H](O[C@]3(C(=O)O)C[C@H](O)[C@@H](NC(C)=O)[C@H]([C@H](O)[C@H](O)CO)O3)[C@H]2O)[C@@H]1O` [compound 293, Neu5Acα2-3Galβ1-4GlcNAcβ1-3Galβ1-3GlcNAcβ-Sp0] came in with an RFU on LuIII VLP (VP2) [1] of 728 ± 180 RFU. “Fucα1-3(Neu5Acα2-3Gαlβ1-4)GlcNAcβ1-3Gαlβ1-4Glcβ-AH [compound 7]” displayed an RFU at LuIII VLP (VP2) [2] of 151 ± 23 RFU. As to “H-1 parvovirus virus-like particle (VLP) composed of VP2, the major capsid protein (natural protein)”, in experiment [3], the stoichiometry N came to 60. As for “LuIII virus-like particle (VLP) composed of VP2, the major capsid protein (natural protein)”, the stoichiometry N in experiment [4] stood at 60. Consider “Neu5Acα2-3Gαlβ1-4GlcNAcβ1-3Gαlβ1-4Glcβ-AH [compound 6]”, for which the results for the RFU at MVM / MVMp VLP (VP2) and at LuIII VLP (VP2) [2] were 153 ± 24 RFU and 106 ± 37 RFU, respectively. Take Neu5Acα2-3Gαlβ1-4Glcβ-AH [compound 9]: the RFU came to 109 ± 102 RFU at MVM / MVMp VLP (VP2) and 267 ± 44 RFU at LuIII VLP (VP2) [2]. Compound “Neu5Acα2-6Gαlβ1-4GlcNAc-6-sulfαteβ-AH [compound 10]” came in with an RFU on MVM / MVMp VLP (VP2) of 203 ± 36 RFU.

In the case of Neu5Acα2-6Gαlβ1-4Glcβ-AH [compound 8], at LuIII VLP (VP2) [2], the RFU is given as 105 ± 13 RFU.
